This series can be described thus: Solubility of forms of salmeterol in ethanol/HFA mixtures. The series is classed as physicochemical. The note with it: mixtures of ethanol/HFA134a and ethanol/HFA227; relative to racemic salmeterol xinafoate. The source says:
FIG. 6: Chart to show the solubility of various forms of salmeterol in a number of different solvents.

Structures are written as SMILES.

For `OCc1cc(C(O)CNCCCCCCOCCCCc2ccccc2)ccc1O` (stereo not drawn) [salmeterol base, 4-hydroxy-α^1-[[[6-(4-phenylbutoxy)hexyl]amino]methyl]-1,3-benzenedimethanol], the solubility result is “substantially more soluble”. The result for `O=C(O)c1ccc2ccccc2c1O.OCc1cc(C(O)CNCCCCCCOCCCCc2ccccc2)ccc1O` (centres unmarked) [R-salmeterol xinafoate] reads “significantly more soluble”.

The record behind these values is patent US20050048001A1, “Pharmaceutical formulations of salmeterol” (priority 1999, published 2005).
